≈ marks a conversion by molar mass, not a printed value. Like-named read-outs stand apart in the source and are kept apart here.
What was measured:
Format in all cases: in vivo
[1] = tested on: resistant strain of green rice leafhopper (Nephotetix cincticeps); experiment: Test Example 3: rice seedling dip test, resistant green rice leafhopper; settings: Nephotettix cincticeps, 24 h, rice seedlings dipped 1 minute; adults of resistant strain; after one day; read-out: LC50 value (ppm)
Description: The emulsifiable concentrates of the following present compounds and control compounds obtained according to Formulation example 2 were each diluted with water to a prescribed concentration, and rice seedlings (about 12 cm in length) were dipped for 1 minute in the resulting aqueous dilute solutions. After air-drying, the seedlings were placed in test tube, and 10 adults of a resistant strain of green rice leafhopper (Nephotetix cincticeps) were liberated in the tube. After one day, the dead and alive of the adults were examined to obtain LC50 (50% lethal concentration)(two replications).

[2] = tested on: tobacco cutworms (Spodoptera litura); experiment: Test Example 2: tobacco cutworm larvae on treated artificial feed; settings: 150 ppm solution, 2 ml in 13 g artificial feed, 4th instar larvae, six days after; for mortality at 150 ppm: Spodoptera litura, 144 h, read-out: Mortality (%)
From the text: The emulsifiable concentrates of the following present compounds obtained according to Formulation example 2 were each diluted with water to obtain respective 667 times dilution aqueous solutions (corresponding to 150 ppm) containing said compounds, respectively. Two ml of thus diluted solutions were impregnated into the artificial feeds (13 g) for tobacco cutworms (Spodoptera litura) and thus prepared feeds were placed in polyethylene cups of 11 cm in diameter, respectively. Ten of the 4th instar larvae were liberated thereon.
Six days after, the dead and alive of the larvae were examined to calculate the mortality (two replications).

[3] = tested on: brown rice planthoppers (Nila^parvata luqens); experiment: Test Example 7: spray on potted rice plants, brown rice planthopper, residual effect; settings: 20 h, 100 ppm spray, 20 ml/2 pots, twenty hours after liberation
Description: The emulsifiable concentrates of the following compounds and control compounds obtained according to Formulation example 2 were each diluted with water one thousand times (corresponding to 100 ppm) and each of thus prepared solutions was sprayed at the rate of 20 ml/2 pots to the rice plant seedlings planted in Wagner pots having a surface area of one ten thousandth are. After air-drying, the treated plants were covered with the iron wire cages, and about 15 adults of brown rice planthoppers (Nila^parvata luqens) were liberated thereto. Further, about 15 adults thereof were also liberated thereto 4 days after the application to examine the residual effects. Twenty hours after each liberation, the dead and alive adults were examined to calculate the mortality.

[4] = tested on: common mosquito (Culex pipiens pallens); experiment: Test Example 1: common mosquito larvae in diluted emulsifiable concentrate, mortality and emergence inhibition; settings: 3.5 ppm; for mortality at 3.5 ppm / pest or weed control at 3.5 ppm: Culex pipiens; for mortality at 3.5 ppm: 24 h, read-out: Mortality; for pest or weed control at 3.5 ppm: read-out: Inhibitory ratio of emergence
Description: The emulsifiable concentrates of the following present compounds obtained according to Formulation example 2 were each diluted with water so as to obtain respective aqueous solutions containing 3.5 ppm of said compounds, respectively. One hundred ml of thus diluted aqueous solutions were poured into respective polyethylene cups of 180 ml volume, and 20 of the last instar larvae of common mosquito (Culex pipiens pallens) were liberated thereto. After one day, the dead or alive of the larvae were examined.
Thereafter, the feed was added to respective cups and the number of emerged pupae of the respective cups was counted when all the pupae of no treatment group had emerged to calculate the inhibitory ratios of the emergence.
The mortality and the inhibitory ratio of the emergence are shown according to the following three criteria: • mortality: A; 90% or more, • B; less than 90% to 10%, • C; less than 10%. • inhibitory: A; 90% or more, ratio of • emergence B; less than 90% to 80% • C; less than 80%.

[5] = tested on: houseflies (Musca domestica) of WHO strains; experiment: Test Example 6: housefly filter paper and sucrose bait test; settings: 0.7 ml on filter paper with sucrose bait, adult females, after 48 hours, read-out: LC50 value (ppm)
Description: On the bottom of a polyethylene cup of 5.5 cm- in diameter was placed a piece of filter paper of the same size as the bottom, and 0.7 ml of a test solution, prepared by diluting the emulsifiable concentrates of the following present compounds and control compounds prepared according to Formulation example 2 to a prescribed concentration with water, was added dropwise to the filter paper. Thirty milligrams of sucrose were uniformly placed on the filter paper as bait. Thereafter, 10 adult female houseflies (Musca domestica) of WHO strains were liberated in the cup, which was then covered with a lid. After 48 hours, the dead and alive were examined to obtain LC50 value (50% lethal concentration) (two replications).

[6] = residual effect, read-out: Mortality (%) liberated 4 days after application
[7] = read-out: Mortality (%) liberated just after air-drying
[8] = 20 last instar larvae, after one day
[9] = counted when all pupae of no treatment group had emerged

| Structure (SMILES) | LC50 [1] | mortality at 150 ppm [2] | mortality at 100 ppm [3, 6] | mortality at 100 ppm [3, 7] | mortality at 3.5 ppm [4, 8] | pest or weed control at 3.5 ppm [4, 9] | LC50 [5] | Mortality (%) ([2]; 8640 min) | Mortality ([4]; 20 last instar larvae, after one day, 1440 min) | Inhibitory ratio of emergence [4, 9] |
| --- | --- | --- | --- | --- | --- | --- | --- | --- | --- | --- |
| C=CC(C)(CCCc1ccc(F)c(Oc2ccccc2)c1)c1ccc(OCC)cc1 (centres unmarked) [(2)] | 80 µg/mL (≈ 198 µM) | 100% | 100% | 100% | > 90% | > 90% |  |  |  |  |
| C#CC(C)(CCCc1ccc(F)c(Oc2ccccc2)c1)c1ccc(OC)cc1 (centres unmarked) [(5)] | 56 µg/mL (≈ 144 µM) | 100% |  |  | > 90% | > 90% | 13 µg/mL (≈ 33.5 µM) |  |  |  |
| C#CC(C)(CCCc1ccc(F)c(Oc2ccccc2)c1)c1ccc(OCC=C)cc1 (centres unmarked) [(8)] | 54 µg/mL (≈ 130 µM) | 100% |  |  | > 90% | > 90% |  |  |  |  |
| C#CC(C)(CCCc1ccc(F)c(Oc2ccccc2)c1)c1ccc(Cl)cc1 (centres unmarked) [(10)] | 32 µg/mL (≈ 81.4 µM) | 100% |  |  | > 90% | > 90% |  |  |  |  |
| C#CC(C)(CCCc1ccc(F)c(Oc2ccccc2)c1)c1ccc2c(c1)OCO2 (centres unmarked) [(12)] | 63 µg/mL (≈ 157 µM) | 100% |  |  | > 90% | > 90% | 13 µg/mL (≈ 32.3 µM) |  |  |  |
| C#CC(C)(CCCc1cccc(Oc2ccccc2)c1)c1ccc2c(c1)OCO2 (centres unmarked) [(14)] |  | 100% |  |  | > 90% | > 90% |  |  |  |  |
| C#CC(C)(CCCc1cccc(Oc2ccc(F)cc2)c1)c1ccc(OCC)cc1 (centres unmarked) [(15)] | 3.6 µg/mL (≈ 8.94 µM) | 100% |  |  | > 90% | > 90% |  |  |  |  |
| C#CC(C)(CCCc1cccc(Oc2ccccc2)c1)c1ccc(OCC)c(Cl)c1 (centres unmarked) [(16)] | 15 µg/mL (≈ 35.8 µM) | 100% |  |  | 10 to 90% | > 90% |  |  |  |  |
| C=CC(C)(CCCc1cccc(Oc2ccccc2)n1)c1ccc(OCC)cc1 (centres unmarked) [(19)] |  |  |  |  | 10 to 90% | > 90% |  |  |  |  |
| C#CC(C)(CCCc1cccc(Sc2ccccc2)c1)c1ccc(OCC)cc1 (centres unmarked) [(22)] | 90 µg/mL (≈ 225 µM) | 100% |  |  | 10 to 90% | > 90% |  |  |  |  |
| C#CC(C)(CCCc1cccc(Oc2ccccc2)c1)c1ccc(CC)cc1 (centres unmarked) [(23)] | 40 µg/mL (≈ 109 µM) | 100% |  |  | > 90% | > 90% |  |  |  |  |
| C#CC(C)(CCCc1cccc(Oc2ccccc2)c1)c1ccc(OC)cc1 (centres unmarked) [(24)] | 27 µg/mL (≈ 72.9 µM) | 100% |  |  | 10 to 90% | > 90% |  |  |  |  |
| C#CC(C)(CCCc1cccc(Oc2ccccc2)c1)c1ccc(Cl)cc1 (centres unmarked) [(25)] | 61 µg/mL (≈ 163 µM) | 100% |  |  | > 90% | > 90% |  |  |  |  |
| C#CC(CC)(CCCc1cccc(Oc2ccccc2)c1)c1ccc(Cl)cc1 (centres unmarked) [(26)] |  |  |  |  | > 90% | > 90% |  |  |  |  |
| C#CC(C)(CCCc1ccc(F)c(Oc2ccccc2)c1)c1ccc(OC(F)F)c(Cl)c1 (centres unmarked) [(27)] | 31 µg/mL (≈ 67.6 µM) |  |  |  | 10 to 90% | > 90% | 11 µg/mL (≈ 24 µM) |  |  |  |
| C#CC(CCCc1cccc(Oc2ccccc2)c1)c1ccc(OCC)cc1 (centres unmarked) [(28)] |  |  |  |  | > 90% | > 90% |  |  |  |  |
| C#CC(CC)(CCCc1ccc(F)c(Oc2ccccc2)c1)c1ccc(OCC)cc1 (centres unmarked) [(29)] |  | 100% |  |  | > 90% | > 90% |  |  |  |  |
| C#CC(C)(CCCc1ccc(F)c(Cc2ccccc2)c1)c1ccc(OCC)cc1 (centres unmarked) [(30)] | 28 µg/mL (≈ 69.9 µM) | 100% |  |  | > 90% | > 90% |  |  |  |  |
| C=CC(C)(CCCc1ccc(F)c(Nc2ccccc2)c1)c1ccc(OCC)cc1 (centres unmarked) [(31)] |  | 100% |  |  | > 90% | > 90% |  |  |  |  |
| C#CC(CC)(CCCc1cccc(Oc2ccccc2)c1)c1ccc(OCC)cc1 (centres unmarked) [(32)] |  |  |  |  | > 90% | > 90% |  |  |  |  |
| C#CC(C)(CCCc1ccc(F)c(Oc2ccc(C)cc2)c1)c1ccc(OCC)cc1 (centres unmarked) [(33)] | 23 µg/mL (≈ 55.2 µM) | 100% |  |  | > 90% | > 90% |  |  |  |  |
| C#CC(C)(CCCc1cccc(Oc2ccccc2)c1)c1ccc(F)cc1 (centres unmarked) [(35)] | 93 µg/mL (≈ 259 µM) | 100% |  |  | > 90% | > 90% |  |  |  |  |
| C#CC(C)(CCCc1ccc(F)c(Oc2ccccc2)c1)c1ccc(Cl)c(Cl)c1 (centres unmarked) [(36)] | 64 µg/mL (≈ 150 µM) |  |  |  | 10 to 90% | > 90% |  |  |  |  |
| C#CC(C)(CCCc1ccc(F)c(Oc2ccccc2)c1)c1ccc(C(F)(F)F)cc1 (centres unmarked) [(37)] |  |  |  |  |  |  | 13 µg/mL (≈ 30.5 µM) | 100% | A (90% or more) | A (90% or more) |
| C#CC(C)(CCCc1ccc(F)c(Oc2ccc(F)cc2)c1)c1ccc(OCC)cc1 (centres unmarked) [(38)] | 1.9 µg/mL (≈ 4.52 µM) | 100% |  |  | > 90% | > 90% | 14 µg/mL (≈ 33.3 µM) |  |  |  |
| C#CC(C)(CCCc1ccc(F)c(Oc2ccccc2)c1)c1ccc(OCC=C)c(Cl)c1 (centres unmarked) [(40)] | 46 µg/mL (≈ 102 µM) |  |  |  | 10 to 90% | > 90% |  |  |  |  |
| C#CC(CC)(CCCc1ccc(F)c(Oc2ccccc2)c1)c1ccc(Cl)cc1 (centres unmarked) [(41)] |  |  |  |  | > 90% | > 90% |  |  |  |  |
| C#CC(CCCC)(CCCc1ccc(F)c(Oc2ccccc2)c1)c1ccc(OCC)cc1 (centres unmarked) [(42)] |  | 100% |  |  | 10 to 90% | > 90% |  |  |  |  |
| C#CC(C)(CCCc1cccc(Oc2ccccc2)n1)c1ccc(OC)cc1 (stereo not drawn) [(44), 3-(4-methoxyphenyl)-3-methyl-6-(6-phenoxy-pyridin-2-yl)-l-hexyne] |  | 100% |  |  | 10 to 90% | > 90% |  |  |  |  |
| CCC(C)c1ccccc1OC(=O)NC (centres unmarked) [(C), BPMC, reference compound] | 190 µg/mL (≈ 917 µM) |  | 6% | 100% |  |  |  |  |  |  |

— patent EP0193189A1, “Novel compound, its production and insecticidal and acaricidal composition containing it as an active ingredient” (SUMITOMO CHEMICAL COMPANY, LIMITED, priority 1985, dated 1986)
